IC50 and Activity data for 13 compounds are collected here from ChEMBL document CHEMBL3399963, “Design, synthesis and preliminary biological evaluation of C-8 substituted guanine derivatives as small molecular inhibitors of FGFRs” (Bioorg Med Chem Lett, 2015).

One may read the IC50 as the midpoint of a concentration-inhibition curve.

Series [1] has as its target Fibroblast growth factor receptor 3 (Homo sapiens, UniProt P22607). The experiment in a line: Inhibition of FGFR3 (unknown origin) after 90 mins by TR-FRET assay. (TR-FRET usually uses a lanthanide donor and a delayed reading to cut background.)
Series [2] addresses T1, Fibroblast growth factor receptor 4 (Homo sapiens, UniProt P22455). The series can be described thus: Inhibition of FGFR4 (unknown origin) after 90 mins by TR-FRET assay.
In series [3] the target is T1, Fibroblast growth factor receptor 4. The experiment in a line: Inhibition of FGFR4 (unknown origin).
The nature of series [4]: Cytotoxicity against human HeLa 229 cells after 72 hrs by MTT assay. The note with it: HeLa 229, 72 h.
Series [5] in a line: Cytotoxicity against mouse B16F10 cells after 72 hrs by MTT assay. The note with it: B16-F10, 72 h. For orientation: Formazan colour is commonly taken as a measure of viable cells.
Series [6] is described as follows: Cytotoxicity against human HL7702 cells after 72 hrs by MTT assay. The note with it: L02, 72 h.
A further series has as its system A549. The experiment in a line: Cytotoxicity against human A549 cells after 72 hrs by MTT assay. The note with it: A549, 72 h.
Series [7] in a line: Cytotoxicity against human HL7702 cells assessed as cell survival at 2 to 10 uM after 72 hrs by MTT assay. It counts as cell-based. The note with it: l02, 72 h.
Series [8] concerns the target Fibroblast growth factor receptor 1 (Homo sapiens, UniProt P11362).
Description: Inhibition of FGFR1 (unknown origin) after 90 mins by TR-FRET assay
Series [9] addresses Fibroblast growth factor receptor 2 (Homo sapiens, UniProt P21802). The experiment in a line: Inhibition of FGFR2 (unknown origin) after 90 mins by TR-FRET assay.

T1 sequence (P22455 whole entry): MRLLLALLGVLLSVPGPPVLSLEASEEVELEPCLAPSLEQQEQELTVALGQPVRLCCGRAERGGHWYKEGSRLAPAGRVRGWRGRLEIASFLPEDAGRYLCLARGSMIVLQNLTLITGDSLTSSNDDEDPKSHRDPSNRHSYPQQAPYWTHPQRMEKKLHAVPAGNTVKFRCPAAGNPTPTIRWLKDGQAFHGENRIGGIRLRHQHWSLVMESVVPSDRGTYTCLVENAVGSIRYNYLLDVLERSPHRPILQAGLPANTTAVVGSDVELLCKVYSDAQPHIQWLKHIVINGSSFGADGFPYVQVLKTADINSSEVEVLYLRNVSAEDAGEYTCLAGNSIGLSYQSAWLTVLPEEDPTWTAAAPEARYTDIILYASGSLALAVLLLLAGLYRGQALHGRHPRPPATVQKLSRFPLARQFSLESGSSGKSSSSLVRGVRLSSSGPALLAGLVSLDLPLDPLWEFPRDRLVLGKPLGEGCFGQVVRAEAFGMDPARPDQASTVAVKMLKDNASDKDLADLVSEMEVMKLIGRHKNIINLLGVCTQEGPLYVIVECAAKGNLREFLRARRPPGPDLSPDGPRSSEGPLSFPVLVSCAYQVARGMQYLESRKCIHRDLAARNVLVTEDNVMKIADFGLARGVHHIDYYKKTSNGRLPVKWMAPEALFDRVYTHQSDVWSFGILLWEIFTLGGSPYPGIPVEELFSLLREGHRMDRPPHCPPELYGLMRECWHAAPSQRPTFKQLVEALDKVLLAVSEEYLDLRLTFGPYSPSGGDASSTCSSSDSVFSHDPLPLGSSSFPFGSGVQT
Chain of Fibroblast growth factor receptor 3 (P22607 whole entry): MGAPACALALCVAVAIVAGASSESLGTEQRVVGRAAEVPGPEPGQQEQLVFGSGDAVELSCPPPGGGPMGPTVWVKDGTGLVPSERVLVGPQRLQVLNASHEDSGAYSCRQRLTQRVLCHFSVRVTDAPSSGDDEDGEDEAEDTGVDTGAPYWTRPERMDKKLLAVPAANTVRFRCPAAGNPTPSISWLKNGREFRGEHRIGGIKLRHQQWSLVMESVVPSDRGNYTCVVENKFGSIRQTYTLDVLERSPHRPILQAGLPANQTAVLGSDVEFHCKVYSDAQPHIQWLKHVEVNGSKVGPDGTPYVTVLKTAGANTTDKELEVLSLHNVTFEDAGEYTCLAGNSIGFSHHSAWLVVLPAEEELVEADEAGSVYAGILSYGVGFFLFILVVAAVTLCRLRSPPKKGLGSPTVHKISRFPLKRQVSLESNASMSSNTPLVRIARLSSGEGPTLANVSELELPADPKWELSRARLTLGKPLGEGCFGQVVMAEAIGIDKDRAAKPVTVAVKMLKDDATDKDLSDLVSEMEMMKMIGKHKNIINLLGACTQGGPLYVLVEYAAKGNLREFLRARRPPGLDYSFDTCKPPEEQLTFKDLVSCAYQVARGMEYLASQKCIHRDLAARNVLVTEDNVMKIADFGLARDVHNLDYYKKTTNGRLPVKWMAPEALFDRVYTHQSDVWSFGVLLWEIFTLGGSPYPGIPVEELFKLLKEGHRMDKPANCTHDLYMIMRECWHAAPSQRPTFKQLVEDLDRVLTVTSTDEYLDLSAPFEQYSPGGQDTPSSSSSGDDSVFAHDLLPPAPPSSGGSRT
Chain of Fibroblast growth factor receptor 1 (P11362 whole entry): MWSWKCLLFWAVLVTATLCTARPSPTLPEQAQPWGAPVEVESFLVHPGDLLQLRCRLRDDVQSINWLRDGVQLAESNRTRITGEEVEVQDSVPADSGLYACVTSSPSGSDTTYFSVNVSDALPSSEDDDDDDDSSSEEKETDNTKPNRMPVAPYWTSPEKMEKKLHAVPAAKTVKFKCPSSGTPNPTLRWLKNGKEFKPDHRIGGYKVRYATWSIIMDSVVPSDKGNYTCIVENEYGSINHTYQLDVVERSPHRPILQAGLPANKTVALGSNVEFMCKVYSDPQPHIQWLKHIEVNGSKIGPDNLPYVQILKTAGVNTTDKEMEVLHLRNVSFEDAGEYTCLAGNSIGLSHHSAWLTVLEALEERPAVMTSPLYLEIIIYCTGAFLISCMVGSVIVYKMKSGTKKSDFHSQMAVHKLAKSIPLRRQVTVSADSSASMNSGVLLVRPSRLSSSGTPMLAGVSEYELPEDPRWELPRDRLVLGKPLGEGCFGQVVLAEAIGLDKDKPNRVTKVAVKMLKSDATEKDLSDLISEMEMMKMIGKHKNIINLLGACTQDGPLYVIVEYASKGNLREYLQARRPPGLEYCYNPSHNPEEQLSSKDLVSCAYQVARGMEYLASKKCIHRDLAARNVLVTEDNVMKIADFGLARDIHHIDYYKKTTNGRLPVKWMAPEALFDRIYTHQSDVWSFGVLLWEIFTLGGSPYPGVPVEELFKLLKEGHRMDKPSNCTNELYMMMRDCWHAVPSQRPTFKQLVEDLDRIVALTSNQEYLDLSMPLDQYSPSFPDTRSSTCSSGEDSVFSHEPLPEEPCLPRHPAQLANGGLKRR
Chain of Fibroblast growth factor receptor 2 (P21802 whole entry): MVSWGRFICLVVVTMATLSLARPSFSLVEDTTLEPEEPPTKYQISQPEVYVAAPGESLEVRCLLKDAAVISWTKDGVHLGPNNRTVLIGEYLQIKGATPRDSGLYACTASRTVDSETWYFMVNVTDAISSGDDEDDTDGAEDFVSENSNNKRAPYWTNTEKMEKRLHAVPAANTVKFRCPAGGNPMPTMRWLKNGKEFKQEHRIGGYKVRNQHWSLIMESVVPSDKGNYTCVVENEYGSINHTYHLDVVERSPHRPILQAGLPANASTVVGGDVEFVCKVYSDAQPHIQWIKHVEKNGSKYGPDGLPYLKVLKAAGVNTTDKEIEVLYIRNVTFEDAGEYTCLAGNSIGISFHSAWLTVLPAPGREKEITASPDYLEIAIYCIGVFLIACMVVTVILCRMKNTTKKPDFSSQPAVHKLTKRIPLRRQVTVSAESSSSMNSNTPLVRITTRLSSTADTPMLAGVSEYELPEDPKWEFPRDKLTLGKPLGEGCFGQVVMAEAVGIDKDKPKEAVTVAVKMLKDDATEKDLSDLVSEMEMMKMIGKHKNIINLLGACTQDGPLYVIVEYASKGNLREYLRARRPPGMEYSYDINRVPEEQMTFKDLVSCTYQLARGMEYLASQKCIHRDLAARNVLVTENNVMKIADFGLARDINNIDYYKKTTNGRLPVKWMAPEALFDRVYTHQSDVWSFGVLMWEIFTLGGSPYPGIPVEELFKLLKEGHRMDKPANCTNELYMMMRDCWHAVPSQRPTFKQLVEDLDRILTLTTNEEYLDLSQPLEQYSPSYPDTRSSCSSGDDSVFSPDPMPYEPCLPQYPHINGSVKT

As to `Cc1ccc(-c2nc3c(O)nc(N)nc3[nH]2)c(C)c1`, the IC50 in series [1] and in series [2] was more than 20 µM throughout.

As for `CN1CCN(c2ccc(-c3nc4c(N5CCN(CC(=O)Nc6nccs6)CC5)c(Cl)cnc4[nH]3)cc2)CC1`, the IC50 in [3] is 20 nM; in series [2], 0.13 µM; in series [4], 4.37 µM; in series [5] it was 1.61 µM; in [6], 27.6 µM; in the series on A549, 2.59 µM.

For the compound `Nc1nc(O)c2nc(-c3ccccc3)[nH]c2n1`, the IC50 in series [1] and in [2] was more than 20 µM each time.

For the compound `COc1cccc(-c2nc3c(O)nc(NC(C)=O)nc3[nH]2)c1OC`, the IC50 in [1] is more than 20 µM; in series [2] it was more than 20 µM; in series [4], 10.5 µM; in series [5] it was 10.8 µM; in series [6], 50 µM; in the series on A549 it was 11.9 µM.

In turn, `CC(=O)Nc1nc(O)c2nc(-c3ccc(C)cc3C)[nH]c2n1` showed an IC50 in series [2] of more than 20 µM.

`CC(=O)Nc1nc(O)c2nc(-c3c[nH]c4cccc(Br)c34)[nH]c2n1`: in [7], the Activity result was “Non-toxic”. In addition, the IC50 in series [2] was more than 20 µM; in series [4] it was 9.72 µM; in series [5], 6.59 µM; in [6] it was 46.6 µM; in the series on A549 it was 8.28 µM.

As for `COc1ccccc1-c1nc2c(O)nc(NC(C)=O)nc2[nH]1`, the IC50 in [1] and in series [2] was more than 20 µM in each case.

Regarding `CC(=O)Nc1nc(O)c2nc(-c3ccccc3)[nH]c2n1`, the IC50 in series [1] and in series [2] was more than 20 µM each time.

As to `Nc1nc(O)c2nc(-c3c[nH]c4ccccc34)[nH]c2n1`, the IC50 is more than 20 µM in [1]; more than 20 µM in [2]; 15.4 µM in series [4]; 10.3 µM in series [5]; 47 µM in series [6]; 10.4 µM in the series with A549.

In the case of `CC(C)(C)NC(=O)Nc1nc2nc(N)ncc2cc1-c1c(Cl)cccc1Cl`, the IC50 in series [1] was determined as 0.29 µM; in series [2] it was 0.56 µM; in [4], 3.87 µM; in series [8] it was 110 nM; in [5] it was 2.62 µM; in series [6] it was 28.4 µM. For the same compound, the IC50 in the series with A549 was 4.34 µM; in [9], 130 nM.

For `COc1ccccc1-c1nc2c(O)nc(N)nc2[nH]1`, the IC50 in series [1] and in [2] was more than 20 µM in each case.

For `COc1cc(CCc2cc(NC(=O)c3ccc(N4C[C@@H](C)N[C@@H](C)C4)cc3)n[nH]2)cc(OC)c1` [FEXAGRATINIB], the Activity result in series [7] is “Non-toxic”. The IC50 was found to be 0.14 µM in series [4], 0.051 µM in series [5], 18.2 µM in series [6] and 0.062 µM in the series with A549.

`CC(=O)Nc1nc(O)c2nc(-c3c[nH]c4ccccc34)[nH]c2n1`: the IC50 was more than 20 µM in [2]; 10.8 µM in series [4]; 8.96 µM in series [5]; 47.7 µM in series [6]; 9.39 µM in the series on A549.
